“And” between values parts separate entries of the source, which are not always exact repeats. Equal values may be shown once. Where only a bound is given, the exact number is not on record here.

`Cc1ccc(C(=O)C2=C(O)C(=O)N(c3nc4ccc(F)cc4s3)C2c2ccc(Oc3ccccc3)cc2)o1` (stereo not drawn) [Compound 468] yielded a melting point of 172 to 173 °C.

As for `CCOc1ccc2nc(N3C(=O)C(O)=C(C(=O)c4ccc(C)o4)C3c3ccc(-c4cccc([N+](=O)[O-])c4)o3)sc2c1` (stereo not drawn) [Compound 256], the melting point was in the range of 187 to 188 °C.

`Cc1ccc(C(=O)C2=C(O)C(=O)N(Cc3cccs3)C2c2ccc(F)cc2)o1` (stereo not drawn) [Compound 505] came in with a melting point of 225 to 226 °C.

Turning to `CCN(CC)c1ccc(C2C(C(=O)c3ccc(C)o3)=C(O)C(=O)N2c2nc3ccc(F)cc3s2)cc1` (stereo not drawn) [Compound 615], the melting point is 209 to 212 °C.

`CCc1ccc2nc(N3C(=O)C(O)=C(C(=O)c4ccc(C)o4)C3c3cccc(Cl)c3)sc2c1` (stereo not drawn) [Compound 136]: the melting point is 174 to 177 °C.

For the molecule `O=C(C1=C(O)C(=O)N(c2nc3ccc(F)cc3s2)C1c1ccc(F)cc1)c1nccs1` (stereo not drawn) [Compound 438], the melting point fell in the range of 320 to 321 °C.

`COC1=C(C(C)=O)C(c2ccccc2F)N(c2nc3ccc(Cl)cc3s2)C1=O` (stereo not drawn) [Compound 430] had a melting point of 235 to 236 °C.

In turn, `O=C(O)CCC(=O)C1=C(O)C(=O)N(c2nc3ccc(Cl)cc3s2)C1c1ccccc1F` (stereo not drawn) [Compound 568] displayed a melting point of 258 to 260 °C.

Consider `Cc1ccc(C(=O)C2=C(O)C(=O)N(c3nc4ccc(F)cc4s3)C2c2ccc(OCCCN(C)C)cc2)o1` (stereo not drawn) [Compound 480], for which the melting point was 209 to 211 °C.

In turn, `CCOC1=C(C(=O)c2ccc(C)o2)C(c2ccc(O)cc2)N(c2nc3ccccc3n2C)C1=O` (stereo not drawn) [Compound 431] gave a melting point of 254 to 255 °C.

As for `Cc1ccc(C(=O)C2=C(O)C(=O)N(C3CCC(O)CC3)C2c2ccccc2F)o1` (stereo not drawn) [Compound 433], the melting point lay in the range of 204 to 206 °C.

Molecule `COc1cccc(C2C(C(=O)c3ccc(C)o3)=C(O)C(=O)N2c2nc3ccc(F)cc3s2)c1` (stereo not drawn) [Compound 603] yielded a melting point of 201 to 202 °C.

Consider `CCc1ccc2nc(N3C(=O)C(O)=C(C(=O)c4ccc(C)o4)C3c3ccccc3F)sc2c1` (stereo not drawn) [Compound 138], for which the melting point lay within 165 to 169 °C.

With `CCOc1ccc2nc(N3C(=O)C(O)=C(C(=O)c4ccc(C)o4)C3C3CCCCC3)sc2c1` (stereo not drawn) [Compound 185], the melting point lay in the range of 166 to 167 °C.

Molecule `Cc1ccc(C(=O)C2=C(O)C(=O)N(c3nc4c(O)ncnc4[nH]3)C2c2ccccc2F)o1` (stereo not drawn) [Compound 162] yielded a melting point of more than 350 °C.

The molecule `Cc1ccc(C(=O)C2=C(O)C(=O)N(c3ncc(C)s3)C2c2ccccc2F)o1` (stereo not drawn) [Compound 161] had a melting point of 251 to 252 °C.

Turning to `O=C(C1=C(O)C(=O)N(c2nc3ccc(Cl)cc3s2)C1c1ccc(F)cc1)C1CC1` (stereo not drawn) [Compound 452], the melting point lay in the range of 229 to 230 °C.

For `Cc1ccc(C(=O)C2=C(O)C(=O)N(CCCNCCCN)C2c2ccc(F)cc2)o1` (stereo not drawn) [Compound 491], the melting point is 126 to 128 °C.

For the molecule `CCc1ccc2nc(N3C(=O)C(O)=C(C(=O)c4ccc(C)o4)C3c3ccccc3)sc2c1` (stereo not drawn) [Compound 130], the melting point fell in the range of 204 to 206 °C.

`COc1ccc2nc(N3C(=O)C(O)=C(C(=O)c4ccc(C)o4)C3c3ccccn3)sc2c1` (stereo not drawn) [Compound 157] came in with a melting point of 240 to 241 °C.

Turning to `O=C(COc1ccccc1)C1=C(O)C(=O)N(c2nc3c(Cl)cccc3s2)C1c1ccc(F)cc1` (stereo not drawn) [Compound 450], the melting point was 204 to 206 °C.

In turn, `COc1ccccc1CC(=O)C1=C(O)C(=O)N(c2nc3c(Cl)cccc3s2)C1c1ccccc1F` (stereo not drawn) [Compound 483] returned a melting point of 224 to 226 °C.

On to `Cc1ccc(C(=O)C2=C(O)C(=O)N(c3nc4ccc(Cl)cc4s3)C2c2cccc(OCc3ccccc3)c2)o1` (stereo not drawn) [Compound 475], for which the melting point was 215 to 216 °C and 213 to 214 °C.

Consider `CC(=O)N1CCCC1C(=O)C1=C(O)C(=O)N(c2nc3ccc(F)cc3s2)C1c1ccc(Cl)cc1` (stereo not drawn) [Compound 648], for which the melting point fell in the range of 293 to 297 °C.

For the molecule `Cc1ccc(C(=O)C2=C(O)C(=O)N(c3nc4ccc(F)cc4s3)C2c2ccc3ccccc3c2)o1` (stereo not drawn) [Compound 600], the melting point was 254 to 256 °C.

For the molecule `Cc1ccc(C(=O)C2=C(O)C(=O)N(c3ncccn3)C2c2ccccc2F)o1` (stereo not drawn) [Compound 188], the melting point was 249 to 250 °C.

Regarding `CCN(CC)c1ccc(C2C(C(=O)c3ccc(C)o3)=C(O)C(=O)N2c2nc3c(Cl)cccc3s2)cc1` (stereo not drawn) [Compound 616], the melting point was 223 to 226 °C.

`CCOc1ccc2nc(N3C(=O)C(O)=C(C(=O)c4ccc(C)o4)C3c3ccc4ccccc4n3)sc2c1` (stereo not drawn) [Compound 252]: the melting point fell in the range of 260 to 261 °C.

`CCc1ccc2nc(N3C(=O)C(O)=C(C(=O)c4ccc(C)o4)C3c3ccc(OC)cc3)sc2c1` (stereo not drawn) [Compound 132] yielded a melting point of 192 to 194 °C.

As for `COc1cccc(C2C(C(=O)c3ccc(C)o3)=C(O)C(=O)N2c2nc3ccc(Cl)cc3s2)c1` (stereo not drawn) [Compound 602], the melting point was in the range of 229 to 230 °C.

Turning to `Cc1ccc(C(=O)C2=C(O)C(=O)N(c3nc4ccc(Cl)cc4s3)C2c2cccc3ccccc23)o1` (stereo not drawn) [Compound 617], the melting point lay in the range of 260 to 261 °C.

In turn, `Cc1ccc(C(=O)C2=C(O)C(=O)N(c3ncnc4c3ncn4C3OC(CO)C(O)C3O)C2c2ccccc2F)o1` (stereo not drawn) [Compound 217] yielded a melting point of 106 to 109 °C.

With `CC(=O)N1CCCC1C(=O)C1=C(O)C(=O)N(c2nc3ccc(Cl)cc3s2)C1c1ccc(F)cc1` (stereo not drawn) [Compound 646, 4-(1-Acetylpyrrolidine-2-carbonyl)-1-(6-chlorobenzo[d]thiazol-2-yl)-5-(4-fluorophenyl)-3-hydroxy-1H-pyrrol-2(5H)-one], the melting point lay in the range of 268 to 272 °C.

As to `Cc1ccc(C(=O)C2=C(O)C(=O)N(c3nc4cccnc4s3)C2c2ccc(O)c(C(=O)O)c2)o1` (stereo not drawn) [Compound 248], the melting point lay within 243 to 245 °C.

As to `Cc1ccc(C(=O)C2=C(O)C(=O)N(CCc3c[nH]c4ccccc34)C2c2ccccc2F)o1` (stereo not drawn) [Compound 593], the melting point lay in the range of 197 to 198 °C.

`COc1ccc2nc(N3C(=O)C(O)=C(C(=O)c4ccc(C)o4)C3c3cccnc3)sc2c1` (stereo not drawn) [Compound 158] gave a melting point of 291 to 292 °C.

With `O=C(COc1ccccc1Cl)C1=C(O)C(=O)N(c2nc3ccc(Cl)cc3s2)C1c1ccc(F)cc1` (stereo not drawn) [Compound 458], the melting point fell in the range of 196 to 197 °C.

`Cc1ccc(C(=O)C2=C(O)C(=O)N(c3nc4ccc(Cl)cc4s3)C2c2ccc(OCCCN(C)C)cc2)o1` (stereo not drawn) [Compound 479] had a melting point of 211 to 213 °C.

In the case of `O=C(C1=C(O)C(=O)N(c2nc3ccc(Cl)cc3s2)C1c1ccc(F)cc1)C1CCC1` (stereo not drawn) [Compound 572], the melting point was in the range of 271 to 273 °C.

Turning to `O=C(C1=C(O)C(=O)N(c2nc3ccc(Cl)cc3s2)C1c1ccc(F)cc1)c1nccs1` (stereo not drawn) [Compound 436], the melting point lay within 310 to 311 °C.

Turning to `COc1ccccc1CC(=O)C1=C(O)C(=O)N(c2nc3ccc(F)cc3s2)C1c1ccc(F)cc1` (stereo not drawn) [Compound 485], the melting point fell in the range of 223 to 224 °C.

For `CCOc1ccc2nc(N3C(=O)C(O)=C(C(=O)c4ccc(C)o4)C3c3ccc4c(c3)OCO4)sc2c1` (stereo not drawn) [Compound 251], the melting point fell in the range of 230 to 231 °C.

Source of the values: US20110130397A1, “PYRROLINONE COMPOUNDS AS INHIBITORS OF BACTERIAL PEPTIDYL TRNA HYDROLASE AND USES THEREOF” (priority 2006, published 2011).
